Reference: patent publication US9844217B2, “Allomone repulsive and kairomone attractive compositions for controlling arachnids” (Fideline, priority 2002, dated 2017)

Tested on: chicken mites
Assay: Tests for resistance to other miticides
Set-up: species or system Dermanyssus gallinae
Settings: for % deaths 1× dose: 1× the dose on the product's instructions; for % deaths 4× dose: 4× the commercial dose; for % deaths 8× dose: 8× the commercial dose; for % deaths 16× dose: 16× the commercial dose; for % deaths 32× Dose: 32× the commercial dose
Excerpt: The doses were chosen at 1 to 32 times the dose commercially given on the products' instructions.

Cc1ccc(/N=C/N(C)/C=N/c2ccc(C)cc2C)c(C)c1 [Amitraz]
% deaths 1× dose: 97.4% | % deaths 1× dose (listed as Amitraze): most efficient miticide | % deaths 4× dose: 98.5% | % deaths 8× dose: 100.00% | % deaths 16× dose: 100.00% | % deaths 32× Dose: 100.0%

CC1(C)C(C=C(Cl)Cl)C1C(=O)OC(C#N)c1cccc(Oc2ccccc2)c1 (stereo not drawn) [Aplhamethrine]
% deaths 1× dose: 48.1% | % deaths 4× dose: 85.2% | % deaths 4× dose (listed as Aphamethrine): 85% | % deaths 8× dose: 97.0% | % deaths 16× dose: 98.9% | % deaths 32× Dose: 99.6%

COP(=O)(OC)SCn1c(=O)oc2cc(Cl)cnc21 [Azamethiphos]
% deaths 1× dose: 30.0% | % deaths 4× dose: 43.3% | % deaths 8× dose: 54.8% | % deaths 16× dose: 100.00% | % deaths 32× Dose: 97.8%

CNC(=O)Oc1cccc2ccccc12 [Carbaryl]
% deaths 1× dose: 19.3% | % deaths 4× dose: 37.8% | % deaths 8× dose: 64.4% | % deaths 16× dose: 91.1% | % deaths 32× Dose: 97.8%

COP(=O)(OC)C(O)C(Cl)(Cl)Cl (stereo not drawn) [Trichlorfon]
% deaths 1× dose: 20.4% | % deaths 4× dose: 39.7% | % deaths 8× dose: 34.4% | % deaths 16× dose: 80.8% | % deaths 32× Dose: 94.4%
